In patent US20040208866A1, “Methods of regulating body weight” (priority 2002, published 2004):

Legend:
[1] = tested on: antral portion of the stomach; test: Gastrointestinal contractility: distance between transducing crystals on the antral stomach; type: in vivo, Sprague-Dawley rats
Source text: Two male Sprague-Dawley rats, approximately 12 weeks old (Harlan, Indianapolis, Ind.) were anesthetized with urethane and their stomachs were exposed through a small abdominal incision. Two 2.4 mm transducing crystals (Sonometrics, Ontario, Canada) were placed on the antral portion of the stomach such that circular contractions could be monitored as a change in the distance between the two crystals. The crystals were attached with VETBOND TISSUE ADHESIVE (3M, St. Paul, Minn.). […] The amplitude of the NE-induced decrease was approximately 50% of the acetylcholine-induced increase in distance. Both responses were transient. A negative control of […] of phosphate buffer solution (PBS) applied topically between the crystals had no effect. A 14 amino acid zsig33 peptide (zsig33-1, as shown in Example 4) was dissolved in PBS and […] was applied topically for a final concentration of 1 μg, 10 μg or 100 μg.

[2] = tested on: stomachs of fasted male Sprague-Dawley rats; test: Gastric emptying: transit of phenol red through the stomach; type: in vivo; settings: 1 μg applied topically to the stomach 5 minutes after gavage, read 30 minutes after the gavage
Description: The effect of topically applied zsig33 peptide (amino acid 24 to 37 of SEQ ID NO: 2) on the transit of phenol red through the stomachs of fasted male Sprague-Dawley rats (Harlan, Indianapolis, Ind.) was evaluated. The rats (6 animals, 8 weeks old) were fasted 24 hrs prior to being anesthetized with urethane (0.5 ml/100 grams of 25% solution). After anesthetizing, the animals were orally gavaged with 1 ml of Phenol Red solution (50 μg/ml in 2% methylcellulose solution).
The stomach of each animal was exposed through a small abdominal incision and either 1 μg zsig33 peptide or a 14 amino acid control of a scrambled sequence peptide was applied topically to the stomach five minutes following the gavage. The amount of Phenol Red remaining in the stomach was determined by measuring optical density of the extracted stomach contents 30 minutes after the gavage.

Balb C male mice = test: Binding studies of FITC-labelled zsig33 peptides in situ after tail vein injection; type: in vivo; settings: FITC-labelled peptide, 0.5 mg per mouse by tail vein, 15 minutes circulation, fluorescent microscopy at 495 nm
Description: Ten week old Balb C male mice were anesthetized via intramuscular injection and tested for binding of zsig33 peptides in vivo.
Two peptides were tested: the first peptide, zsig33-1, (See Example 4) consisted of residues 24 to 37 of SEQ ID NO:2, and the second peptide, zsig33-2, consisted of residues 24 to 41 of SEQ ID NO:2. A single glycine was used as a negative control. Additionally, a “scrambled” negative control consisting of residues the first peptide which had been rearranged (SEQ ID NO:15) was also tested. The peptides and controls were coupled to fluorescein isothiocyantate (FITC, Molecular Probes, Eugene, Oreg.) in the following manner: The peptides, glycine control and FITC were dissolved in 0.1 M sodium bicarbonate at pH 9.0 to a concentration of 2.0 mg/ml for the peptides and glycine control and 5 mg/ml for FITC, avoiding exposure of the FITC to strong light. […] The buffer was changed daily and unbound FITC in the post-dialyzed buffer was measured by HPLC. […] Peptide- or glycine-bound FITC was determined by measuring the absorbance of the dialyzed FITC-bound material at 498 nm and dividing by the extinction coefficient of fluorescein, […]. The molar ratio of fluorescein to peptide (mole FITC/mole peptide) was then determined. […]

ob/ob mice [3] = test: Body weight, food intake and glucose clearance, 14-day oral dosing; type: in vivo; settings: 1 μg/mouse orally twice daily for fourteen days, versus scrambled peptide
Description: Sixteen female ob/ob mice, 8 weeks old, (Jackson Labs, Bar Harbor, Me.) were adapted to a special 4 hour daily feeding schedule for two weeks. The were fed ad libitum from 7:30-11:30 am daily. After two weeks on the feeding schedule, the mice were divided into two groups of 8. One group was given 1.0 μg/mouse of zsig33-1 (14 amino acid peptide) and the other vehicle (a 14 amino acid scrambled sequence peptide) in […] sterile 0.1% BSQA by oral gavage just prior to receiving food, and at the end of the 4 hour feeding period. The mice were […] twice daily for fourteen days, during which time food intake and body weight was measured daily. On day 14, immediately after the second oral gavage of the zsig33-1 peptide, the mice were challenged orally with an 0.5 ml volume of 25% glucose. Retro-orbital bleeds were done to determine serum glucose levels immediately prior to administration of the zsig33-1 peptide or vehicle ([…].), and also at 0, 1, 2, and 4 hours following the glucose challenge.

ob/ob mice [4] = test: Glucose absorption after oral glucose challenge; type: in vivo; settings: 100 μg by oral gavage 30 minutes prior to oral glucose challenge, female ob/ob mice
Description: Eight female ob/ob mice, approximately 6 weeks old (Jackson Labs, Bar Harbor, Me.) were adapted to a 4 hour daily feeding schedule for two weeks. After two weeks on the feeding schedule, the mice were given 100 μg of a zsig33 peptide (zsig33-1, as shown in Example 4) in 100 μl sterile 0.1% BSA by oral gavage, immediately after their eating period (post-prandially). Thirty minutes later, the mice were challenged orally with a 0.5 ml volume of 25% glucose. Retroorbital bleeds were done to determine serum glucose levels. Blood was drawn prior to zsig33 dosing, prior to oral glucose challenge, and at 1, 2, 4, and 20 hours following the glucose challenge.

Row | Compound | amplitude of the NE-induced decrease relative to the acetylcholine-induced increase in distance ([1]; 10 ml of 1 mM applied topically) | change in distance between the two crystals ([1]; 10 ml of 1 mM applied topically to the stomach, anesthetized rats) | change in crystal distance ([1]; 1 μg peptide in PBS applied topically) | rate and amplitude of the contractions ([1]; 10 μg and 100 μg applied topically, compared with 1 μg) | reduction of the amount of Phenol Red remaining in the stomach compared to a scrambled peptide [2] | fluorescence in duodenum, jejunum and kidney compared to the glycine and scrambled controls (Balb C male mice) | daily body weight (ob/ob mice [3]) | daily food intake (ob/ob mice [3]) | post-prandial glucose absorption (serum glucose) (ob/ob mice [4])
1 | NC[C@H](O)c1ccc(O)c(O)c1 [norepinephrine, reference compound] | approximately 50% | reduction in the distance between the two crystals |  |  |  |  |  |  | 
2 | zsig33-1: 14 amino acid peptide corresponding to residue 24 (Gly) to residue 37 (Gln) of SEQ ID NO:2 (GSSFLSPEHQRVQQ; listed as Homo sapiens) |  |  | sustained, rhythmic increase and decrease in crystal distance | enhanced responses in both rate and amplitude | approximately 25% | increased fluorescence in duodenum, jejunum and in the collecting ducts and convoluted tubules of the kidney | no affect | no affect | enhanced post-prandial glucose absorption
3 | zsig33-2: peptide consisting of residues 24 to 41 of SEQ ID NO:2 (GSSFLSPEHQRVQQRKES; listed as Homo sapiens) |  |  |  |  |  | increased fluorescence in duodenum, jejunum and in the collecting ducts and convoluted tubules of the kidney |  |  | 
